Reference: PubChem BioAssay (NCI)
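Where inhibition never reached the appropriate level, the endpoint shown equals the highest concentration tested. Otherwise, values were interpolated linearly from a five-concentration, 48-hour dose response in 96-well plates. GI50 = concentration required for 50% inhibition of growth. The concentration for full growth arrest is given as TGI.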

Key:
Assay in all cases: NCI tumour cell line growth inhibition, 48 h
UO-31 renal = test system: UO-31 renal
U251 CNS = test system: U251 CNS
HOP-62 NSCLC = test system: HOP-62 NSCLC
UACC-257 melanoma = test system: UACC-257 melanoma
SNB-78 CNS = test system: SNB-78 CNS
NCI-H522 lung = test system: NCI-H522 lung
MOLT-4 leukemia = test system: MOLT-4 leukemia
M19-MEL melanoma = test system: M19-MEL melanoma
SN12C renal = test system: SN12C renal
DLD-1 colon = test system: DLD-1 colon

Compound	TGI (UO-31 renal) [µM]	TGI (U251 CNS) [µM]	TGI (HOP-62 NSCLC) [µM]	TGI (UACC-257 melanoma) [µM]	TGI (SNB-78 CNS) [µM]	TGI (NCI-H522 lung) [µM]	TGI (MOLT-4 leukemia) [µM]	TGI (M19-MEL melanoma) [µM]	TGI (SN12C renal) [µM]	TGI (DLD-1 colon) [µM]	GI50 (NCI-H522 lung) [µM]	GI50 (MOLT-4 leukemia) [µM]
O=c1cc(-c2ccccc2)[nH]c2cc(Cl)ccc12	> 100	3.91	13.3	83.2	> 100	0.358	15.9	> 100	82.3	23.8		
c1ccc(N/N=C2\NN=C(c3ccccc3)CS2)cc1	32.8		> 100	41.4	34.2	10.8	34.1					
CCc1cccc(C)c1NC(=S)NC(=O)c1ccccc1C(=O)NC(=S)Nc1c(C)cccc1CC	> 100	> 100	> 100	> 100	> 100	35.2	> 100	> 100	> 100	> 100		
CCN=C(C#N)NCC	> 100	> 100	> 100	> 100	> 100	> 100	> 100	> 100	> 100	> 100		
O=C1C2C3C=CC(C2C(=O)N1CN1CCSCC1)C1C2C(=O)N(CN4CCSCC4)C(=O)C2C31 (centres undefined)	> 100	> 100	> 100	> 100	> 100	> 100	> 100	> 100	> 100	> 79.3	82.3	54.2
COc1ccc(CCc2cc(OC)c(O)c(OC)c2)cc1	> 100	> 100	> 100	91.6	> 100	> 100	> 100	> 100	> 100	> 100		
Cc1cc(Cl)ccc1NC(=O)C(=O)C(C(=O)c1ccccc1)C1OC(=O)c2ccccc21 (centres undefined)	> 100	> 100	> 100	> 100	> 100	> 100	> 100	> 100	> 100	> 100		
c1ccc2c(NCCCCCCNc3cccc4ccccc34)cccc2c1	> 100	> 100	> 100	> 100	> 100	> 100	> 100	> 100	> 100	> 100		
CC(=O)O[C@H]1CC2C=CC3C(CCC31)O2 (some centres undefined)	> 100	> 100	> 100		> 100		> 100	> 100	> 100	> 100		
CCOC(=O)c1cccnc1C(OC(C)=O)OC(C)=O	> 100	> 100	> 100	> 100	> 100	> 100	> 100	> 100	> 100	> 100		
CCOC1CC2OC(=O)C1C=C2C(=O)OC (centres undefined)	> 100	> 100	> 100	74.2	> 100	28.1	48.8	> 100		65.8		
[O-]c1c2c(nn1-c1ccc(Cl)cc1)c1ccccc1c[n+]2Cc1ccccc1	> 100	> 100	> 100	> 100	> 100	> 100	> 100		> 100	> 100		
